Results taken from patent US20070225278A1, “Methods for treating cognitive and other disorders” (priority 2006, published 2007).

What was measured:
[1] = system: male Sprague Dawley CD rats; test: Reversal of MK-801 induced deficits in PPI; conditions: 3-30 mg/kg IP, MK-801 0.15 mg/kg SC
male Sprague-Dawley rats = test: Schedule-induced polydipsia (SIP) in rats; format: in vivo, rat
Text: SIP is a model of obsessive-compulsive disorder. In this model, a food pellet is delivered once per minute for a two-hour period. A water bottle is available in the chamber. […] This excessive manifestation of a normal behavior (drinking) provides face validity to the model. […] Most importantly, clinically effective drugs for the treatment of obsessive-compulsive disorder decrease adjunctive drinking.
Animals: Male Sprague-Dawley rats weighing 275-325 g were individually housed in wire hanging cages. Each cage was equipped with a water spigot attached to an automated watering system which allow free access to water at all times.
Methods Rats were placed in an operant chamber (Med Associates) equipped with a pellet dispenser, a food receptacle, a houselight and a water bottle with 100 ml of water. Houselights were turned on in the chamber and a food pellet (Bioserve, 45 mg) was delivered on a fixed-time 60 sec schedule, such that one pellet was delivered each minute during a 2 hour experimental session. At the end of the session, water intake was measured.
Experiments to control for schedule and baseline water intake were conducted by placing 120 pellets in the food receptacle at the start of a 2-hour experimental session. Houselights were turned on, but no additional food pellets were delivered. At the end of the session, water intake was measured.
Dose calculations were based on active moiety.
Evaluation of Results Data were analyzed using a one-way ANOVA. Post hoc tests comparing vehicle to doses of Compound 1 were conducted using contrasts in a least squares model. An ED50 value (dose decreasing polydipsic intake to 50% of vehicle values) was calculated using nonlinear regression models.

[2] = system: acetylcholine in medial prefrontal cortex; test: In vivo microdialysis, acetylcholine in medial prefrontal cortex; conditions: 17 mg/kg s.c., rat
Procedure: Animals: Adult male Sprague-Dawley rats (Charles River, Wilmington, Mass.) weighing 280-350 g at the time of surgery were used for all microdialysis experiments. Adult male Long-Evans rats (Charles River, Wilmington, Mass.) weighing 180-220 g were used for NOR studies. Rats were housed individually for recognition memory studies. All animals had free access to food and water and were group housed in the AAALAC-accredited facility that was maintained on a 12 h light dark cycle (lights on at 0600 h) for at least 1 week prior to surgery or behavioral testing. All in vivo studies were performed in accordance to the ‘Guide for the Care and Use of Laboratory Animals’ as adopted and promulgated by the National Institutes of Health (Pub. 85-23, 1985). […]
Analysis of Acetylcholine Dialysate levels of acetylcholine were determined using LC/MS/MS. […]
Acetylcholine data were quantified using peak area against an internal standard and acquired using Masslynx software (Micromass, Beverly, Mass., USA). The mean of the concentration of baseline samples was calculated and denoted as 0%. All sample values were expressed as a percent change from this pre-injection mean baseline value (% change from baseline). Neurochemical data, excluding pre-injection values, were analyzed by a two-way analysis of variance (ANOVA) with repeated measures (time). […]

[3] = system: male Sprague Dawley CD rats; test: Reversal of d-amphetamine induced deficits in pre-pulse inhibition (PPI); conditions: 3-17 mg/kg IP, d-amphetamine 4 mg/kg SC

## c1cc2c3c(c1)[C@H]1CCC[C@H]1N3CCNC2 [Compound 1]
[1]; all doses tested
  reduction of the increase in startle produced by MK-801: did significantly reduce
[1]; any dose tested
  attenuation of MK-801 induced disruption in gating (PPI): did not show an ability to significantly attenuate
Male Sprague-Dawley rats; 3 mg/kg ip, p=0.0003
  change in excessive water intake: −43%
Male Sprague-Dawley rats; 10 mg/kg ip, p<0.0001
  change in excessive water intake: −87%
Male Sprague-Dawley rats; Rattus norvegicus, ip, read-out: ED50 (dose decreasing polydipsic intake to 50% of vehicle values)
  ED50: 3.16 mg/kg
Male Sprague-Dawley rats; highest dose (10 mg/kg ip)
  rats that did not eat all of their food pellets during the 2-hour session: 3 of 10
Male Sprague-Dawley rats; ip, acute, 2 hour session
  MED for decrease in adjunctive drinking: 3 mg/kg
[2]
  maximal increase in acetylcholine with respect to baseline: 63%
[3]; all doses tested
  attenuation of amphetamine induced deficit in PPI: significantly attenuated
[3]
  effect on startle alone responding: without having a significant effect
